The source of these data is patent US9918990B2, “Substituted pyrrolo[2,3-c]pyridines and pyrazolo[3,4-c]pyridines as BET protein inhibitors” (Incyte Corporation, priority 2013, dated 2018).

Structures are written as SMILES. Counter-ions that a name gives are not always drawn.

The test system of one experiment is KMS.12.BM cells. Briefly: KMS.12.BM cell viability assay (Cell Titer-GLO, ATP quantitation). The format is cell-based. The settings on record: Homo sapiens, 72 h, 3 days, concentration required for 50% cell death, read-out: KMS cellular IC50. How it is done:
KMS.12.BM cell line (human myeloma) was purchased from JCRB (Osaka, Japan) and maintained in RPMI with 10% FBS culture medium. To measure the cytotoxic activity of the compounds through ATP quantitation, the KMS.12.BM cells are plated in the RPMI culture medium at 5000 cells/well/per 100 μL into a 96-well polystyrene clear black tissue culture plate (Greiner-bio-one through VWR, NJ), in the presence or absence of a concentration range of test compounds. After 3 days, […] Cell Titer-GLO Luminescent (Promega, Madison, Wis.) cell culture agent is added to each well for 10 minutes at room temperature to stabilize the luminescent signal. This determines the number of viable cells in culture based on quantitation of the ATP present, which signals the presence of metabolically active cells. Luminescence is measured with the Top Count 384 (Packard Bioscience through Perkin Elmer, Boston, Mass.). Compound inhibition is determined relative to cells cultured with no drug and the IC50 is reported as the compound concentration required for 50% cell death. IC50 data for the Examples is presented in Table 9 as determined by Assay B1.
A general note: Cellular ATP, detected with luciferase, serves as a proxy for viable cell number.

The next experiment concerns the target BRD4-BD2 (Homo sapiens (Human), UniProt O60885). Briefly: BRD4 AlphaScreen assay, BRD4-BD2. The settings on record: H4Ac4 peptide, 75 min, room temperature, read-out: BRD4 BD-2 enzyme IC50. The format is binding. Here is the method: (§1) BRD4-BD1 and BRD4-BD2 assays were conducted in white 384-well polystyrene plate in a final volume of 20 μL for BD1 and 40 μL for BD2. Inhibitors were first serially diluted in DMSO and added to the plate wells before the addition of other reaction components. […] After plate sealing, the plate was incubated in the dark at room temperature for 75 min. before reading on a PHERAstar FS plate reader (BMG Labtech). IC50 determination was performed by fitting the curve of percent control activity versus the log of the inhibitor concentration using the GraphPad Prism 5.0 software.
For orientation: Alpha assays give light when donor and acceptor beads are brought close together.

The subject of the next experiment is C-myc. Briefly: KMS.12.BM C-myc ELISA assay. The conditions noted are these: Homo sapiens; KMS.12.BM cells, 2 hours, concentration required for 50% C-myc inhibition. The class given is cell-based. How it is done:
KMS.12.BM cell line (human myeloma) was purchased from JCRB (Osaka, Japan) and maintained in RPMI with 10% FBS culture medium. To measure the C-myc inhibitory activity of the compounds, the KMS.12.BM cells are plated in the RPMI culture medium at 75000 cells/well/per 200 μL into a 96-well flat bottom polystyrene tissue culture plate (Corning through VWR, NJ), in the presence or absence of a concentration range of test compounds. After 2 hours, cell are pelleted and lysed with Cell Extraction Buffer (BioSource, Carlsbad, Calif.) in the presence of protease inhibitors (Life Technologies, Grand Island, N.Y. and Sigma, St Louis, Mo.). Clarified lyses are tested in a C-myc commercial ELISA (Life Technologies, Grand Island, N.Y.). Compound inhibition is determined relative to cells cultured with no drug and the IC50 is reported as the compound concentration required for 50% C-myc inhibition. IC50 data for the Examples is presented in Table 10 as determined by Assay C1.

For another experiment, the target named is BRD4-BD1 (Homo sapiens (Human), UniProt O60885). Briefly: BRD4 AlphaScreen assay, BRD4-BD1. The class given is binding. The conditions noted are these: H4Ac4 peptide, 75 min, room temperature, read-out: BRD4 BD-1 enzyme IC50. Here is the method:
as §1

Regarding `Cn1cc(-c2ccc3[nH]c(=O)[nH]c3c2Oc2ccc(F)cc2F)c2cc[nH]c2c1=O` [Example 1, 4-(2,4-Difluorophenoxy)-5-(6-methyl-7-oxo-6,7-dihydro-1H-pyrrolo[2,3-c]pyridin-4-yl)-1,3-dihydro-2H-benzimidazol-2-one], the half-inhibitory concentration (IC50) in the experiment on KMS.12.BM cells is at most 1000 nM; at BRD4-BD2, under 100 nM; with C-myc, at most 1000 nM; on BRD4-BD1 it was under 100 nM.
For `Cn1cc(-c2ccc3[nH]cnc3c2Oc2ccc(F)cc2F)c2cc[nH]c2c1=O` [Example 2, 4-[4-(2,4-Difluorophenoxy)-1H-benzimidazol-5-yl]-6-methyl-1,6-dihydro-7H-pyrrolo[2,3-c]pyridin-7-one trifluoroacetate], the IC50 is at most 1000 nM in the experiment on KMS.12.BM cells, under 100 nM on BRD4-BD2, at most 1000 nM with C-myc and under 100 nM at BRD4-BD1.
For `Cc1nc2c(Oc3ccc(F)cc3F)c(-c3cn(C)c(=O)c4[nH]ccc34)ccc2[nH]1` [Example 3, 4-[4-(2,4-Difluorophenoxy)-2-methyl-1H-benzimidazol-5-yl]-6-methyl-1,6-dihydro-7H-pyrrolo[2,3-c]pyridin-7-one trifluoroacetate], the concentration for half-maximal inhibition (IC50) with KMS.12.BM cells is at most 1000 nM; at BRD4-BD2, under 100 nM; in the experiment on C-myc it was at most 1000 nM; at BRD4-BD1, under 100 nM.
On to `Cn1cc(-c2ccc3c(ncn3C)c2Oc2ccc(F)cc2F)c2cc[nH]c2c1=O` [Example 4, 4-[4-(2,4-Difluorophenoxy)-1-methyl-1H-benzimidazol-5-yl]-6-methyl-1,6-dihydro-7H-pyrrolo[2,3-c]pyridin-7-one trifluoroacetate], for which the IC50 with KMS.12.BM cells was at most 1000 nM; at BRD4-BD2 it was under 100 nM; with C-myc, at most 1000 nM; at BRD4-BD1 it was under 100 nM.
Take `Cc1nc2c(Oc3ccc(F)cc3F)c(-c3cn(C)c(=O)c4[nH]ccc34)ccc2n1C` [Example 5, 4-[4-(2,4-Difluorophenoxy)-1,2-dimethyl-1H-benzimidazol-5-yl]-6-methyl-1,6-dihydro-7H-pyrrolo[2,3-c]pyridin-7-one trifluoroacetate]: the IC50 in the experiment on KMS.12.BM cells is at most 1000 nM; at BRD4-BD2 it was under 100 nM; in the experiment with C-myc it was at most 1000 nM; at BRD4-BD1, under 100 nM.
Regarding `Cn1cc(-c2ccc3c([nH]c(=O)n3C)c2Oc2ccc(F)cc2F)c2cc[nH]c2c1=O` [Example 6, 4-(2,4-Difluorophenoxy)-1-methyl-5-(6-methyl-7-oxo-6,7-dihydro-1H-pyrrolo[2,3-c]pyridin-4-yl)-1,3-dihydro-2H-benzimidazol-2-one], the IC50 in the experiment with KMS.12.BM cells was at most 1000 nM; on BRD4-BD2, under 100 nM; in the experiment on C-myc, at most 1000 nM; on BRD4-BD1, under 100 nM.
For the compound `Cn1cc(-c2ccc3c(c2Oc2ccc(F)cc2F)n(C)c(=O)n3C)c2cc[nH]c2c1=O` [Example 7, 4-(2,4-Difluorophenoxy)-1,3-dimethyl-5-(6-methyl-7-oxo-6,7-dihydro-1H-pyrrolo[2,3-c]pyridin-4-yl)-1,3-dihydro-2H-benzimidazol-2-one], the half-maximal inhibitory concentration (IC50) with KMS.12.BM cells was at most 1000 nM; at BRD4-BD2, under 100 nM; with C-myc it was 1000 to 10000 nM; on BRD4-BD1, under 100 nM.
Consider `Cn1cc(-c2ccc3[nH]nnc3c2Oc2ccc(F)cc2F)c2cc[nH]c2c1=O` [Example 8, 4-[4-(2,4-Difluorophenoxy)-1H-1,2,3-benzotriazol-5-yl]-6-methyl-1,6-dihydro-7H-pyrrolo[2,3-c]pyridin-7-one], for which the IC50 was at most 1000 nM in the experiment with KMS.12.BM cells, under 100 nM at BRD4-BD2, at most 1000 nM in the experiment with C-myc and under 100 nM on BRD4-BD1.
`Cn1cc(-c2ccc3c(nnn3C)c2Oc2ccc(F)cc2F)c2cc[nH]c2c1=O` [Example 9, 4-[4-(2,4-Difluorophenoxy)-1-methyl-1H-1,2,3-benzotriazol-5-yl]-6-methyl-1,6-dihydro-7H-pyrrolo[2,3-c]pyridin-7-one]: the IC50 in the experiment on KMS.12.BM cells was at most 1000 nM; on BRD4-BD2, under 100 nM; in the experiment on C-myc it was at most 1000 nM; at BRD4-BD1 it was under 100 nM.
As to `Cn1cc(-c2ccc3[nH]nnc3c2Oc2ccc(F)cc2F)c2cn[nH]c2c1=O` [Example 10, 4-[4-(2,4-Difluorophenoxy)-1H-1,2,3-benzotriazol-5-yl]-6-methyl-1,6-dihydro-7H-pyrazolo[3,4-c]pyridin-7-one], the IC50 is at most 1000 nM in the experiment with KMS.12.BM cells, under 100 nM at BRD4-BD2, at most 1000 nM in the experiment on C-myc and under 100 nM on BRD4-BD1.
Take `Cn1cc(-c2ccc3[nH]c(=O)[nH]c3c2OCC2CC2)c2cc[nH]c2c1=O` [Example 11, 4-(Cyclopropylmethoxy)-5-(6-methyl-7-oxo-6,7-dihydro-1H-pyrrolo[2,3-c]pyridin-4-yl)-1,3-dihydro-2H-benzimidazol-2-one]: the IC50 in the experiment with KMS.12.BM cells was at most 1000 nM; on BRD4-BD2, under 100 nM; in the experiment on C-myc, at most 1000 nM; on BRD4-BD1, under 100 nM.
`Cn1cc(-c2cc(CNCC3CC3)c3[nH]c(=O)[nH]c3c2Oc2ccc(F)cc2F)c2cc[nH]c2c1=O` [Example 81, 7-{[(Cyclopropylmethyl)amino]methyl}-4-(2,4-difluorophenoxy)-5-(6-methyl-7-oxo-6,7-dihydro-1H-pyrrolo[2,3-c]pyridin-4-yl)-1,3-dihydro-2H-benzimidazol-2-one]: the IC50 in the experiment with KMS.12.BM cells is at most 1000 nM; at BRD4-BD2, under 100 nM; at BRD4-BD1 it was 100 to 1000 nM.
Take `CCn1cc(-c2ccc3c(ncn3C)c2Oc2ccc(F)cc2F)c2cc[nH]c2c1=O` [Example 83, 4-[4-(2,4-Difluorophenoxy)-1-methyl-1H-benzimidazol-5-yl]-6-ethyl-1,6-dihydro-7H-pyrrolo[2,3-c]pyridin-7-one]: the IC50 in the experiment on KMS.12.BM cells was at most 1000 nM; at BRD4-BD2, under 100 nM; on BRD4-BD1, 100 to 1000 nM.
For `Cn1cc(-c2ccc3c(c2Oc2ccccc2)NC(=O)C(C)(C)O3)c2cc[nH]c2c1=O` [Example 95, 2,2-Dimethyl-6-(6-methyl-7-oxo-6,7-dihydro-1H-pyrrolo[2,3-c]pyridin-4-yl)-5-phenoxy-2H-1,4-benzoxazin-3(4H)-one] the same measures were at most 1000 nM, under 100 nM and under 100 nM.
In the case of `Cn1cc(-c2ccc3c([nH]c(=O)n3C)c2Sc2ccccc2)c2cc[nH]c2c1=O` [Example 97, 1-Methyl-5-(6-methyl-7-oxo-6,7-dihydro-1H-pyrrolo[2,3-c]pyridin-4-yl)-4-(phenylthio)-1,3-dihydro-2H-benzimidazol-2-one], the figures for the half-inhibitory concentration (IC50) with KMS.12.BM cells, at BRD4-BD2 and on BRD4-BD1 were at most 1000 nM, under 100 nM and under 100 nM, respectively.
For the compound `CCSc1c(-c2cn(C)c(=O)c3[nH]ccc23)ccc2c1[nH]c(=O)n2C` [Example 98, 4-(Ethylthio)-1-methyl-5-(6-methyl-7-oxo-6,7-dihydro-1H-pyrrolo[2,3-c]pyridin-4-yl)-1,3-dihydro-2H-benzimidazol-2-one], the 50% inhibitory concentration (IC50) with KMS.12.BM cells is at most 1000 nM; on BRD4-BD2 it was under 100 nM; at BRD4-BD1, under 100 nM.
Turning to `CN1C(=O)COc2ccc(-c3cn(C)c(=O)c4[nH]ccc34)c(Oc3ccccc3)c21` [Example 100, 4-Methyl-6-(6-methyl-7-oxo-6,7-dihydro-1H-pyrrolo[2,3-c]pyridin-4-yl)-5-phenoxy-2H-1,4-benzoxazin-3(4H)-one], the IC50 in the experiment on KMS.12.BM cells was at most 1000 nM; on BRD4-BD2 it was under 100 nM; at BRD4-BD1, 100 to 1000 nM.
Turning to `Cn1cc(-c2ccc3c(nc(CNC(=O)C4CCC4)n3C)c2Oc2ccccc2)c2cc[nH]c2c1=O` [Example 111, N-{[1-Methyl-5-(6-methyl-7-oxo-6,7-dihydro-1H-pyrrolo[2,3-c]pyridin-4-yl)-4-phenoxy-1H-benzimidazol-2-yl]methyl}cyclobutanecarboxamide], the IC50 in the experiment with KMS.12.BM cells is at most 1000 nM; at BRD4-BD2 it was under 100 nM; on BRD4-BD1 it was under 100 nM.
In the case of `Cn1cc(-c2ccc3c(nc(CNC(=O)C4CC4)n3C)c2Oc2ccccc2)c2cc[nH]c2c1=O` [Example 112, N-{[1-Methyl-5-(6-methyl-7-oxo-6,7-dihydro-1H-pyrrolo[2,3-c]pyridin-4-yl)-4-phenoxy-1H-benzimidazol-2-yl]methyl}cyclopropanecarboxamide], the IC50 was at most 1000 nM in the experiment on KMS.12.BM cells, under 100 nM at BRD4-BD2 and under 100 nM on BRD4-BD1.

A word on the IC50: it is the concentration at which inhibition is half-maximal.
